Assay results as given in US8685439B2, “Method for the treatment and prevention of eyelid swelling” (Aciex Therapeutics, Inc., priority 2006, dated 2014).

Columns and labels:
morning eyelid swelling [1] = experiment: Treatment of morning eyelid swelling (eyelid edema), eyelid volume by 3D scanner, treated eye vs untreated eye; assay type: in vivo, human; conditions: for reduction of morning eyelid swelling (result in words): topical to one eye, other eye untreated, 3D scanner
Procedure: In this study, the efficacy of naphazoline 0.1% ophthalmic solution was evaluated for treatment for eyelid edema. The eyelid volume for 11 subjects participating in the study was recorded in the afternoon of Day 1 and again upon arrival to the clinic the following morning (Day 2). […] The natural progression of morning eyelid swelling, as measured using 3D scanning technology is depicted in FIG. 10. The increase ranged from 14 mm^3 to 659 mm^3. Subjects were then dosed with naphazoline 0.1% (vasoconstrictor) in the right eye and eyelid volume was assessed at 5, 10, 15, 30, and 120 minutes following treatment using a 3-D scanner. […] A summary of all the patient data is depicted if FIG. 3L.
In a preliminary study with a similar design to that described above, NaCl 5% ophthalmic solution was evaluated as a potential treatment for eyelid edema. […] Eyelid swelling was assessed using a 3-D scanner at 5, 10, 15, 20, 30, and 120 minutes post-treatment. […] In one subject, this reduction was pronounced and was present through the 120 minute assessment time point. In the remaining three patients, treatment was not effective.
A total of 6 subjects (male, between the ages of 25 and 29) were evaluated. At the start of the study, five (5) baseline scans were performed per subject and eye using a 3D scanner. The next day, subjects were asked to five (5) scans of each eye, identical to Visit 1, were then taken.
Subjects received the 2 drops (40 μl each) of the combination treatment, with one minute apart each drop in one eye and no treatment in the other eye. Five (5) scans of each eye were taken, identical to Visit 1, 20 minutes after second drop instillation. Subjects were asked to grade their eyelid swelling post treatment. Digital photos were also taken at baseline and at 20 minutes post treatment.

morning eyelid swelling [2] = experiment: as above; assay type: in vivo, human; conditions: topical to one eye, other eye untreated

`CNC[C@H](O)c1cccc(O)c1` [0.25% phenylephrine formulation, phenylephrine, reference compound] was tested, and the “reduction of morning eyelid swelling (result in words)” value (“reduction of morning eyelid swelling” below) (morning eyelid swelling [1]) was “did reduce morning eyelid swelling”.
With `[Cl-].[Na+]` [NaCl 5% ophthalmic solution, sodium chloride] the “reduction of morning eyelid swelling” value (morning eyelid swelling [2]) was “some efficacy”, the “patients in whom treatment was not effective” value (morning eyelid swelling [1]; 6 subjects) was “three” and the “mean change from baseline versus negative controls” value (morning eyelid swelling [1]; FIG. 4G) was “numerically superior to negative controls, though the differences were not statistically significant”. For the same compound, the “subjects with pronounced reduction in eyelid swelling” value (morning eyelid swelling [1]; present through the 120 minute assessment time point, 6 subjects) was “one”, the “patients with a reduction in eyelid swelling” value (morning eyelid swelling [1]; through 15 minutes post-instillation, 6 subjects) was “Three” and the “reduction of morning eyelid swelling” value (morning eyelid swelling [1]) was “caused a reduction of eyelid swelling in several patients”.
For `OC[C@@H](O)[C@@H](O)[C@H](O)[C@H](O)CO` [mannitol 12.5% solution, mannitol], the “reduction of morning eyelid swelling” value (morning eyelid swelling [1]) was “did reduce morning eyelid swelling”.
In the case of `c1ccc2c(CC3=NCCN3)cccc2c1` [naphazoline 0.1%, naphazoline, reference compound], the “reduction of morning eyelid swelling” value (morning eyelid swelling [2]; listed as naphazoline 0.5% solution) is reported as “caused a reduction of eyelid swelling in most subjects”, the “reduction of morning eyelid swelling” value (morning eyelid swelling [1]) is reported as “demonstrated efficacy” and the “subjects with greater decrease in eyelid volume in treatment eye than non-treatment eye” value (morning eyelid swelling [1]; up to the 30 minute timepoint) is reported as 9 out of 11. The “subjects with greater decrease in eyelid volume in treatment eye than non-treatment eye” value (morning eyelid swelling [1]; up to the 120 minute timepoint) was 7 out of 11.
